# Reference: patent publication US9518065B2, “IRAK inhibitors and uses thereof” (NIMBUS IRIS, INC., priority 2013, dated 2016)
# Read-outs that look alike come from different tables or passages of the source.
# How the values were obtained:
# [1] = test system: LPS induced TNF production; assay: In vivo LPS-induced cytokine production in rats; set-up: species or system female Lewis rats; details: for drug concentration corresponding to the minimal efficacious dose: 10 mg/kg PO; for minimal efficacious dose for inhibition of LPS induced TNF production in vivo: PO in 0.5% methylcellulose, LPS 2 hours after dose, serum TNF-α one hour later
# Method: Compounds of the present invention were also assayed in vivo to determine their inhibitory effect on LPS-induced cytokine production. In vivo studies of LPS-induced cytokine production was conducted in female Lewis rats (n=10 each). Rats were dosed with compound at 30, 10, 3, or 1 mg/kg, 5 mg/kg dexamethasone, or vehicle, dosed PO in 0.5% methylcellulose. After 2 hours, rats were administered LPS in PBS at 0.1 mg/mL, 1 mL/kg. One hour later, rats were bled and serum was analyzed for TNF-α produced by ELISA (eBioscience).
# [2] = test system: cytokine production in human white blood cells (hWBC); assay: In vitro LPS/R848/CpG-induced cytokine production assay in hWBC; type: cell-based; details: WBC
# Method: (§1) Compounds of the present invention were also studied in in vitro LPS/R848/CpG-induced cytokine production assays. Exemplary protocols follow.
# (§2) Whole Blood (LPS): 13 mL of whole blood solution was prepared by combining whole blood in no serum medium with a ratio of 1:1. Cells were seeded in a 96-well plate with 130 ul/well of the cell suspension according to the plate map. 9 ul of 30 mM compound solution was added into the wells in the assigned rows, then serial solutions with 4× dilutions were made. That is, add 9 uL of 100% DMSO into each of the rest wells and take 3 uL of compound solution from the one-step higher concentration solution and mix well with the DMSO. For the second compound master plate, 196 uL of the growth medium (no serum media) were added into each of the wells and 4 uL of the compound solution from the first compound master plate was added and mixed with the media. Cells were treated for 0.5 h by adding 20 uL of the compound and the control solutions prepared in the second master plate to each well according to the plate map. Cells were stimulated with a) 0.1 ug/mL of LPS overnight for whole blood assay; b) 0.01 ug/mL of LPS overnight for hWBC assay. Plates were sealed with sealing films and the plates were centrifuged at 3000 rpm at 4 degrees C. for 5 min. The supernatants were transferred, and 100 ul of working Capture antibody solution was added to each well. The plates were sealed and incubated overnight at RT. IL-6, IFN-α or TNF-α detection antibody labeled with biotin: Added 100 uL of the Detection Antibody solution to each well. Covered the plate and incubated for 2 h at RT. Added 100 uL of Streptavidin-HRP solution to each well. Covered the plate and incubate for 20 min at RT in dark. Added 100 uL of Substrate Solution to each well. Incubated for 20 min at RT in dark. Added 50 uL of Stop Solution to each well. Gently tapped the plate to ensure thorough mixing. Determined the optical density of each well immediately, using a microplate reader set to 450 nm and also read at 540 nm or 570 nm for correction if wavelength correction is not available.
# [3] = test system: TNFα and IL8 production in THP-1 cells; assay: LPS induced cytokine (TNFα and IL8) production assay in THP-1 cells; type: cell-based; details: 300 ng/mL LPS
# Method: Provided compounds were also assayed in an LPS (Lipopolysacharide) or R848 (TLR-7 agonist) induced cytokine (TNFα and IL8) production assay in THP-1 cells, human white blood cells (hWBC), and whole blood. The exemplary protocol for this assay in THP-1 cells was as follows below.
# THP-1 cells from ATCC (TIB-202) were cultured in RPMI Medium 1640 (Invitrogen, Cat No. A10491-01), 10% fetal bovine serum (Invitrogen, Cat No. 10099141, Lot No. 8172882) containing 100 U/mL Penicillin, 100 μg/mL streptomycin (Invitrogen, Cat No. 15140-122), and 50 uM 2-Mercaptoethanol (Invitrogen, Cat No. 21985023). LPS-EK ultra pure (Invivogen, Cat No. tlrl-peklps) was used to induce IL8 and TNFα production, that was detected in the cell culture supernatant by IL8 HTRF kit (Cisbio, Cat No. 62IL8PEB) and TNFα HTRF kit (Cisbio, Cat No. 62TNFPEB), as per manufacturer instructions. Cells were cultured in 96 well assay plates at 100,000 cells per well, and compounds diluted in final 0.3% DMSO were pre-incubated with cells for 1 hour prior to stimulation with 300 ng/mL LPS. Cytokine production in cell supernatant was measured at 5 hours for TNFα and IL8 production, and for 16 hours for IL8 production and assessment of cell viability.
# The compound numbers correspond to the compound numbers in Table 1. […] “NA” stands for “not assayed.”
# [4] = test system: cytokine production in whole blood; assay: In vitro LPS/R848-induced cytokine production assay in whole blood; type: cell-based, human; details: read-out: TNF-α production IC50
# Method: as §1, §2
# [5] = Homo sapiens, CPG 0.5 uM, overnight, read-out: IFN-α production IC50
# [6] = Homo sapiens, LPS 0.1 uM, overnight, read-out: TNF-α production IC50
# [7] = Homo sapiens, R848 1 uM, 5 h, read-out: TNF-α production IC50
# [8] = Homo sapiens, 5 hours, read-out: TNFα production IC50
# [9] = Homo sapiens, 16 hours, read-out: IL8 (16 h) production IC50
# [10] = Homo sapiens, LPS 0.1 uM, overnight
drug concentration corresponding to the minimal efficacious dose [1] [nM],"IC50 [2, 5] [µM]","IC50 [2, 6] [µM]","IC50 [2, 7] [µM]","IC50 [3, 8] [µM]","IC50 [3, 9] [µM]","IC50 [4, 10] [µM]","IC50 ([4]; Homo sapiens, R848 1 uM, 20 h) [µM]","IC50 ([2]; CPG 0.5 uM, overnight, read-out: IFN-α production IC50) [µM]","IC50 ([2]; LPS 0.1 uM, overnight, read-out: TNF-α production IC50) [µM]","IC50 ([2]; R848 1 uM, 5 h, read-out: TNF-α production IC50) [µM]","IC50 ([3]; 5 hours, read-out: TNFα production IC50) [µM]","IC50 ([3]; 16 hours, read-out: IL8 (16 h) production IC50) [µM]","IC50 ([4]; LPS 0.1 uM, overnight) [µM]","IC50 ([4]; R848 1 uM, 20 h) [µM]",Compound,minimal efficacious dose for inhibition of LPS induced TNF production in vivo [1] [mg/kg]
1050,≤ 0.25,≤ 0.25,≤ 0.25,≤ 0.25,≤ 0.25,1 to 5,0.25 to 1,–,–,–,–,–,–,–,"CCc1nc2c(N[C@H]3CC[C@H](N4CCOCC4)CC3)nc(Nc3cnn(C4CCOCC4)c3)nc2s1 [Compound I-9, 2-ethyl-5-N-[1-(oxan-4-yl)-1H-pyrazol-4-yl]-7-N—[trans-4-(morpholin-4-yl)cyclohexyl]-[1,3]thiazolo[5,4-d]pyrimidine-5,7-diamine]",10
6600,–,–,–,–,–,–,–,≤ 0.25,≤ 0.25,≤ 0.25,≥ 0.5,0.25 to 0.5,≥ 5,1 to 5,"2-methyl-N5-(1-methyl-1H-pyrazol-4-yl)-N7-((1r,4r)-4-morpholinocyclohexyl)thiazolo[5,4-d]pyrimidine-5,7-diamine [Compound I-24]",10
1600,≤ 0.25,0.25 to 1,0.25 to 1,≤ 0.25,≤ 0.25,≥ 5,1 to 5,–,–,–,–,–,–,–,"CCc1nc2c(N[C@H]3CC[C@H](N4CCOCC4)CC3)nc(Nc3cnn(C)c3)nc2s1 [Compound I-7, 2-ethyl-N5-(1-methyl-1H-pyrazol-4-yl)-N7-((1r,4r)-4-morpholinocyclohexyl)-thiazolo[5,4-d]pyrimidine-5,7-diamine]",10
